{"source": "paper PMC4412765", "about": "(Chemical biology & drug design, 2014)", "origin": "cited, not measured here", "tested_on": "S. aureus", "settings": "cited from earlier work"}
{"molecule": "C(=C\\c1cc2ccc(C3=NCCN3)cc2[nH]1)/c1cc2ccc(C3=NCCN3)cc2[nH]1", "note": "[BPH-1417]", "values": [{"measurement": "in vitro activity against S. aureus", "value": "potent"}]}
